In patent US20060005464A1, “Alkyl ethanolamine and biocide combination for hydrocarbon based fuels” (priority 2004, published 2006):

Experiments:
[1] = test system: Mycobacterium smegmatis (ATCC # 19420); assay: End-point optical density of Mycobacterium smegmatis with N-alkyl alkanolamines (590 nm, 72 h); assay type: cell-based; details: 590 nm, after 72 hours, pH 8.5, tetrazolium dye
[2] = test system: Mycobacterium marinum (ATCC # 19420); assay: End-point optical density and MIC, Mycobacterium marinum (660 nm, 72 h); assay type: cell-based; details: pH 8.5; for end-point optical density: 660 nm, after 72 hours
Description: The impact of N-alkylalkanolamines on the control of the bacterial species Mycobacterium smegmatis (ATCC # 19420), a bacteria common in water-oil systems, was evaluated by measuring optical absorbance of samples treated with various alkyl ethanolaminesis DCHA=Dicyclohexylamine, OAE=Octylaminoethanol, ODEA=Octyldiethanolamine. Bacterial concentration was monitored indirectly via optical absorbance at 660 nm. The values reported are end-point optical densities in milliOD units after 48 hours. The media consisted of a standardized solution of clear nutrient broth (Middlebrook 7H10 with OADC supplement), amine, buffer (Tris) and water. The pH was adjusted initially to 8.5 with Tris buffer. The first column in the Table gives the amine concentration in ppm. The final two columns give data for cells that also contained 2 grams per liter of boric acid. In all cases, the values are averages of at least three replicates. The final row of the Table gives an estimate of the concentration range in which the amine in question starts to inhibit the growth of this bacterial species.
The impact of the N-alkylalkanolamines of Example 6 on the control of the bacterial species Mycobacterium marinum (ATCC # 19420), bacteria common in water-oil systems, was evaluated as described above in Example 6. Bacterial concentration in the experimental media was monitored indirectly via optical absorbance at 660 nm. The values reported are end-point optical densities in milliOD units after 72 hours. The media consisted of a standardized solution of clear nutrient broth (Middlebrook 7H10 with OADC supplement), amine, buffer (Tris) and water. The pH was adjusted initially to 8.5 with Tris buffer. The first column in the Table gives the amine concentration in ppm. In all cases, the values are averages of at least three replicates. The final row of the Table gives an estimate of the concentration range in which the amine in question starts to inhibit the growth of this bacterial species.

[3] = test system: Pseudomonas aeruginosa (ATCC 10145); assay: Maximum growth slope of Pseudomonas aeruginosa with Bronopol plus alkanolamine; details: pH 8.5, TSB
[4] = test system: Pseudomonas aeruginosa (ATCC 10145); assay: Maximum growth slope of Pseudomonas aeruginosa with Proxel DB20 (BIT) plus alkanolamine; assay type: cell-based; details: pH 8.5, TSB, 24 hour
Description: A culture of Pseudomonas aeruginosa (ATCC 10145) at pH=8.5 in TSB (trypticase soy broth) media was prepared. The biocide Proxel DB20 (20% suspension of benzoisothiazolone (BIT) in water), as sold by Avecia, was added at varying concentrations in combination with 1000 ppm or 2000 ppm of the alkanolamines N-butylaminoethanol (BAE), 2-amino-2-methyl-1-propanol (AMP), dibutylaminoethanol (DBAE) or n-octylaminoethanol (OAE). Optical density measurements were taken every 15 minutes over a 24 hour time period (total of 96 data points). The maximum growth slope was calculated by taking the 10 contiguous data points that result in the highest growth slope (units of OD per time) over a 24 hour period. Those 10 data points were subjected to a least squares linear fit to calculate the maximum growth slope.

[5] = test system: Pseudomonas Aeruginosa (ATCC27853); assay: Microtiter plate growth of Pseudomonas Aeruginosa with amines and GROTAN; assay type: cell-based; details: for growth of Pseudomonas Aeruginosa (Table 1 entry): pH 8.5, 24 hours; for enhancement in the biocidal effect of GROTAN: conclusion from Table 1
[6] = test system: mixed enteric bacteria (klebsiella pneumoniae, Proteus vulgarus, Citrobacter sp., Escherichia coli); assay: Maximum growth slope of mixed enteric bacteria culture with GROTAN plus alkanolamine; assay type: cell-based; details: pH 9.0, TSB with emulsified oil, 24 hour
Description: A culture of mixed enteric bacteria (klebsiella pneumoniae, Proteus vulgarus, Citrobacter sp., Escherichia coli) at pH=9.0 in TSB (trypticase soy broth) media mixed with emulsified oil was prepared. A biocide, GROTAN® {78.5% 1,3,5-(2-hydroxyethyl)-s-triazine solution in water} as sold by Troy Chemicals (Florham Park, N.J.) was added at varying concentrations to the culture in combination with 2500 ppm of one of the four alkanolamines, N-butylaminoethanol (BAE), diethanolamine (DEA), diglycolamine (DGA) or 2-amino-2-methyl-1-propanol (AMP). Optical density measurements were taken every 15 minutes over a 24 hour time period (total of 96 data points). The maximum growth slope was calculated by taking the 10 contiguous data points that result in the highest growth slope (units of OD per time) over the 24 hour period. Those 10 data points were subjected to a least squares linear fit to calculate the maximum growth slope.

[7] = test system: Aureobasidium pullulans (ATCC 12536); assay: End-point optical density of Aureobasidium pullulans with MIT/CMIT plus alkanolamine; assay type: cell-based; details: SAB media pH 8.5
Description: The impact of N-alkylalkanolamines on the control of the bacterial species Aureobasidium pullulans (ATCC 12536), a bacteria common in water-oil systems, was evaluated by measuring optical absorbance of samples treated with various concentrations of N-alkyl alkanolamines. […] SAB media at pH 8.5 (Tris buffer) was employed. Table 8 summarizes measurement of end-point optical density after 24 hours and 48 hours: […]

[8] = amine 2000 ppm plus Bronopol 5 ppm
[9] = amine 2000 ppm plus Bronopol 15 ppm
[10] = amine 2000 ppm plus Bronopol 25 ppm
[11] = amine 2000 ppm plus Bronopol 35 ppm
[12] = amine 1000 ppm plus BIT 150 ppm
[13] = amine 1000 ppm plus BIT 250 ppm
[14] = amine 1000 ppm plus BIT 500 ppm
[15] = amine 2000 ppm plus BIT 150 ppm
[16] = amine 2000 ppm plus BIT 250 ppm
[17] = amine 2000 ppm plus BIT 500 ppm
[18] = amine 2000 ppm plus GROTAN 100 ppm
[19] = amine 2000 ppm plus GROTAN 250 ppm
[20] = amine 2000 ppm plus GROTAN 500 ppm
[21] = amine 2000 ppm plus GROTAN 1000 ppm
[22] = amine 2000 ppm plus GROTAN 2000 ppm
[23] = amine 4000 ppm plus GROTAN 100 ppm
[24] = amine 4000 ppm plus GROTAN 250 ppm
[25] = amine 4000 ppm plus GROTAN 500 ppm
[26] = amine 4000 ppm plus GROTAN 1000 ppm
[27] = amine 4000 ppm plus GROTAN 2000 ppm
[28] = 2500 ppm amine plus GROTAN 650 ppm
[29] = 2500 ppm amine plus GROTAN 1650 ppm
[30] = amine 1000 ppm plus 50 ppm MIT/CMIT, 24 hours
[31] = amine 1000 ppm plus 50 ppm MIT/CMIT, 48 hours
[32] = amine 2000 ppm plus 50 ppm MIT/CMIT, 24 hours
[33] = amine 2000 ppm plus 50 ppm MIT/CMIT, 48 hours

**Q.** Which results are given for `CCCCNCCO` [BAE, butylaminoethanol]?
**A.** end-point optical density ([1]; amine 470 ppm): 2200 milliOD; end-point optical density ([1]; amine 940 ppm): 2100 milliOD; end-point optical density ([1]; amine 1880 ppm): 2000 milliOD; end-point optical density ([1]; amine 3750 ppm): 1900 milliOD; end-point optical density ([1]; amine 7500 ppm): 1700 milliOD; MIC (estimate of the concentration range in which the amine starts to inhibit growth) ([2]; 72 hours): >4000 ppm; end-point optical density ([2]; amine 800 ppm): 0.7 milliOD; end-point optical density ([2]; amine 1200 ppm): 0.7 milliOD; end-point optical density ([2]; amine 2000 ppm): 0.6 milliOD; end-point optical density ([2]; amine 4000 ppm): 0.6 milliOD; maximum growth slope [3, 8]: 0.083; maximum growth slope [3, 9]: 0; maximum growth slope [3, 10]: 0; maximum growth slope [3, 11]: 0; maximum growth slope [4, 12]: 0.317 OD per time; maximum growth slope [4, 13]: 0.353 OD per time; maximum growth slope [4, 14]: 0.281 OD per time; maximum growth slope ([4]; amine 1000 ppm, BIT 0 ppm): 0.333 OD per time; maximum growth slope [4, 15]: 0.134 OD per time; maximum growth slope [4, 16]: 0.000 OD per time; maximum growth slope [4, 17]: 0.000 OD per time; maximum growth slope ([4]; amine 2000 ppm, BIT 0 ppm): 0.000 OD per time; growth of Pseudomonas Aeruginosa (Table 1 entry) [5, 18]: 0.49; growth of Pseudomonas Aeruginosa (Table 1 entry) [5, 19]: 0.45; growth of Pseudomonas Aeruginosa (Table 1 entry) [5, 20]: 0.35; growth of Pseudomonas Aeruginosa (Table 1 entry) [5, 21]: 0.30; growth of Pseudomonas Aeruginosa (Table 1 entry) [5, 22]: 0.36; growth of Pseudomonas Aeruginosa (Table 1 entry) ([5]; amine 2000 ppm, GROTAN 0 ppm): 0.37; growth of Pseudomonas Aeruginosa (Table 1 entry) [5, 23]: 0.35; growth of Pseudomonas Aeruginosa (Table 1 entry) [5, 24]: 0.32; growth of Pseudomonas Aeruginosa (Table 1 entry) [5, 25]: 0.25; growth of Pseudomonas Aeruginosa (Table 1 entry) [5, 26]: 0.29; growth of Pseudomonas Aeruginosa (Table 1 entry) [5, 27]: 0.36; growth of Pseudomonas Aeruginosa (Table 1 entry) ([5]; amine 4000 ppm, GROTAN 0 ppm): 0.49; enhancement in the biocidal effect of GROTAN [5]: provide an enhancement in the biocidal effect of GROTAN®; maximum growth slope [6, 28]: 0.082 OD per time; maximum growth slope [6, 29]: 0.0515 OD per time; maximum growth slope ([6]; 2500 ppm amine, GROTAN 0 ppm): 0.2 OD per time; end-point optical density [7, 30]: 0.3; end-point optical density [7, 31]: 0.3; end-point optical density [7, 32]: 0.2; end-point optical density [7, 33]: 0.2

**Q.** With `CC(C)(N)CO` [AMP, 2-methyl-2-amino-1-propanol, reference compound] as the compound, how does the end-point optical density ([1]; amine 470 ppm) read?
**A.** 2100 milliOD

**Q.** And the end-point optical density ([1]; amine 940 ppm)?
**A.** 2200 milliOD

**Q.** And the end-point optical density ([1]; amine 1880 ppm)?
**A.** 2100 milliOD

**Q.** What about the end-point optical density ([1]; amine 3750 ppm) of the same compound?
**A.** 2000 milliOD

**Q.** What about the end-point optical density ([1]; amine 7500 ppm) of the same compound?
**A.** 1700 milliOD

**Q.** What about the maximum growth slope [3, 8] of the same compound?
**A.** 0.345

**Q.** And the maximum growth slope [3, 9]?
**A.** 0.327

**Q.** And the maximum growth slope [3, 10]?
**A.** 0

**Q.** What about the maximum growth slope [3, 11] of the same compound?
**A.** 0

**Q.** And the maximum growth slope [4, 12]?
**A.** 0.667 OD per time

**Q.** What about the maximum growth slope [4, 13] of the same compound?
**A.** 0.508 OD per time

**Q.** And the maximum growth slope [4, 14]?
**A.** 0.407 OD per time

**Q.** What about the maximum growth slope ([4]; amine 1000 ppm, BIT 0 ppm) of the same compound?
**A.** 0.478 OD per time

**Q.** What about the maximum growth slope [4, 15] of the same compound?
**A.** 0.361 OD per time

**Q.** And the maximum growth slope [4, 16]?
**A.** 0.320 OD per time

**Q.** What about the maximum growth slope [4, 17] of the same compound?
**A.** 0.228 OD per time

**Q.** And the maximum growth slope ([4]; amine 2000 ppm, BIT 0 ppm)?
**A.** 0.29 OD per time

**Q.** And the “growth of Pseudomonas Aeruginosa (Table 1 entry)” value (“growth of Pseudomonas Aeruginosa” for short) [5, 18]?
**A.** 0.72

**Q.** And the “growth of Pseudomonas Aeruginosa” value [5, 19]?
**A.** 0.72

**Q.** And the “growth of Pseudomonas Aeruginosa” value [5, 20]?
**A.** 0.72

**Q.** And the “growth of Pseudomonas Aeruginosa” value [5, 21]?
**A.** 0.31

**Q.** What about the “growth of Pseudomonas Aeruginosa” value [5, 22] of the same compound?
**A.** 0.35

**Q.** And the “growth of Pseudomonas Aeruginosa” value ([5]; amine 2000 ppm, GROTAN 0 ppm)?
**A.** 0.72

**Q.** What about the “growth of Pseudomonas Aeruginosa” value [5, 23] of the same compound?
**A.** 0.72

**Q.** And the “growth of Pseudomonas Aeruginosa” value [5, 24]?
**A.** 0.69

**Q.** What about the “growth of Pseudomonas Aeruginosa” value [5, 25] of the same compound?
**A.** 0.39

**Q.** What about the “growth of Pseudomonas Aeruginosa” value [5, 26] of the same compound?
**A.** 0.30

**Q.** And the “growth of Pseudomonas Aeruginosa” value [5, 27]?
**A.** 0.37

**Q.** And the “growth of Pseudomonas Aeruginosa” value ([5]; amine 4000 ppm, GROTAN 0 ppm)?
**A.** 1.12

**Q.** What about the “enhancement in the biocidal effect of GROTAN” value [5] of the same compound?
**A.** not seen

**Q.** What about the maximum growth slope [6, 28] of the same compound?
**A.** 0.32 OD per time

**Q.** What about the maximum growth slope [6, 29] of the same compound?
**A.** 0.069 OD per time

**Q.** And the maximum growth slope ([6]; 2500 ppm amine, GROTAN 0 ppm)?
**A.** 1.065 OD per time

**Q.** And the end-point optical density [7, 30]?
**A.** 0.3

**Q.** What about the end-point optical density [7, 31] of the same compound?
**A.** 0.4

**Q.** What about the end-point optical density [7, 32] of the same compound?
**A.** 0.3

**Q.** What about the end-point optical density [7, 33] of the same compound?
**A.** 0.4
